Assay results from patent US9272993B2, “Naphthoquinone derivatives useful for prevention of amyloid deposits and treatment of diseases involving amyloidogenesis” (TECHNOLOGY INNOVATION MOMENTUM FUND (ISRAEL) LIMITED …, priority 2008, dated 2016).
Where two headings read alike, the source gives them in different places.

Experiments:
rat PC12 cell line = assay: MTT cell viability assay, cytotoxicity of soluble Aβ oligomers; assay type: cell-based; settings: PC12 cells, 24 hours
Description: The cytotoxicity assay was performed with Rat PC12 cells (1.5×10^5 cells/mL) cultured in 96-well microplates (100 μL/well) and incubated overnight at 37° C. Samples with toxic oligomers from above were either dialyzed over night against PBS buffer or diluted with 9 volumes of an aqueous solution containing 33% methanol and 4% acetic acid, and incubated for 2 hours at 4° C. The samples were then centrifuged at 16,000 g for 40 minutes, the supernatant discarded and the pellet was resuspended in 5 mM NaH2PO4, 35 mM NaCl, pH 7.4. To each well we added 100 μL of 0.5 μM Aβ which formed toxic oligomers and prepared mixtures of inhibitors at various concentrations. Each experiment was repeated four times. Following incubation for 24 hours at 37° C., cell viability was evaluated using the MTT assay. Briefly, 20 μL of 5 mg/mL MTT dissolved in PBS was added to each well. […] Finally, color intensity was measured using an ELISA reader at 570 nm.
To further substantiate the inhibition induced by SY-81, it was tested whether SY-81 affects the toxicity of Aβ oligomers towards the rat PC12 cell line. Toxic oligomers were pre-incubated with different concentrations of SY-81 and toxicity was assessed using the MTT cell viability assay.

Aβ1-42 = target: T1, Aβ1-42 (Homo sapiens, UniProt P05067); assay: Fluorescence anisotropy (polarization) titration with Aβ1-42; assay type: binding
T1 construct: Amyloid β-peptide(1-42) and amyloid β-peptide(1-40) trifluoroacetate salts; purchased Bachem (Bubendorf, Switzerland); host or cells: synthetic peptide
Description: For the florescence anisotropy studies SY-81 or SY-83 was dissolved in DMSO to a concentration of 1 μM and sonicated for 5 min. The solution was immediately mixed with aliquots of an Aβ1-42 stock solution (20 μM) to varying final polypeptide concentrations. SY-81 and SY-83 polarization measurements were carried out using an ISS K2 fluorimeter. The solutions were excited at 280 nm and emission was monitored at 350 nm. For each single point, at least five measurements were collected and their average values were used for the calculation. All experiments were performed in PBS (pH 7.4).
Increasing amounts of Aβ were titrated into a solution of SY-83 or SY-81 and the anisotropy 15 was determined (FIG. 4A-B).

[1] = Locomotion (climbing) assay in Alzheimer's Drosophila model; assay type: in vivo, Drosophila melanogaster; settings: medium with 0.75 mg/ml, control males lacking Aβ1-42 expression
Description: In vivo studies (fly maintenance) were performed with Drosophila melanogaster flies grown on a standard corneal-molasses medium and kept at 25° C. As Drosophila females can store sperm cells in their bodies, crosses were conducted using virgin females collected no longer than 8 hours after eclosion at 25° C. or 18 hours after eclosion at 18° C. Adult offspring (F1) from the crosses were collected up to 9 days after the beginning of their eclosion at 25° C. in order to avoid collection of offspring from the next generation (F2). […]
The locomotion (climbing) assay was carried out in fresh rearing vials, each containing 10 flies of a given class (four classes mentioned below). […] The percent of flies which climbed to the top of the test tube was then calculated over time. […] Data were analyzed using standard ANOVA statistical exams.
In order to assess the effect of SY-81 and SY-83 in the living organism, a Drosophila model of Alzheimer's was used, based on the work of Crowther et al. (ibid) who generated transgenic flies that express the human Aβ1-42 protein conditionally, using the UAS-Gal4 expression system. […] These defects included progressive decline of locomotion in aged flies (measured as ability to climb up), and marked shortening of life span. […]
Suppression of climbing defects was assessed as detailed below in flies genotype: Gal4-elav^c155 UAS-Aβ1-42. […]

Aβ1-40 fibrils = target: T2, Aβ1-40 fibrils (Homo sapiens, UniProt P05067); assay: Thioflavin T (ThT) fluorescence assay of fibril formation; assay type: biochemical
T2 construct: Amyloid β-peptide(1-42) and amyloid β-peptide(1-40) trifluoroacetate salts; purchased Bachem (Bubendorf, Switzerland); host or cells: synthetic peptide
Description: For executing the ThT florescence assay, Aβ1-40 was dissolved to a concentration of 10 μM in 10% DMSO in PBS (pH 7.4). Aβ was immediately mixed with or without different concentrations of SY-81 or SY-83 at a 1:1 ration to a final concentration of 5 μM. The samples were incubated at 37° C. and the fibrillogenesis rate was followed by thioflavin T (ThT) fluorescence assay (excitation at 450 nm, 2.5 nm slit, and emission at 480 nm, 5 nm slit), over a course of 11 days to two weeks. ThT was added to a 10-fold diluted sample and measured using a Jobin Yvon Horiba Fluoromax 3 fluorimeter.
Though there is a growing recognition that the early Aβ oligomer intermediates and not the fibrils are the most toxic amyloid forms in AD, this debate has not been completely resolved. […] This method provides quantitative information on amyloid fibrils growth. β-amyloid was allowed to form amyloid fibrils either in the presence of different concentrations of SY-83 (FIGS. 5A, C) or SY-81 (FIGS. 5B, D) or with no inhibitor (WT). The fibrillization process was followed for several days until a plateau state was reached. Fluorescence values were measured throughout.
An end point experiment was further conducted with various concentrations of SY-81 and SY-83 in order to determine IC50. An IC50 of 50 nM and 100 nM was measured for SY-81 and SY-83, respectively. […]

56 KD Aβ species = assay: Western blot of soluble brain fractions (6E10 antibody); assay type: in vivo; settings: 5XFAD mice, 1 mg intraperitoneally every other day for 4 months

T1 sequence (P05067 672-713 limits assumed): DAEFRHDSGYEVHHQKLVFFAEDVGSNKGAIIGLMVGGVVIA
T2 sequence (P05067 672-711 limits assumed): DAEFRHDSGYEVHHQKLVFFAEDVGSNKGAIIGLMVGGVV

Structure (SMILES)	toxic effect of the compound on its own (cell viability) (rat PC12 cell line)	Kd (Aβ1-42; fluorescence anisotropy, PBS pH 7.4, read-out: affinity towards Aβ) [nM]	climbing behavior of control males [1]	IC50 (Aβ1-40 fibrils; end point experiment, various concentrations, read-out: IC50 of fibril formation) [nM]	reduction in 56 KD Aβ species in soluble brain fractions (56 KD Aβ species) [%]	Kd (Aβ1-42) [nM]	IC50 (Aβ1-40 fibrils) [nM]
O=C1C=C(NC(Cc2c[nH]c3ccccc23)C(=O)O)C(=O)c2ccccc21 (stereo not shown) [SY-81]	no toxic effect	~90	No effect	50	–	–	–
O=C1C(Cl)=C(NC(Cc2c[nH]c3ccccc23)C(=O)O)C(=O)c2ccccc21 (stereo not shown) [SY-83]	–	–	–	–	91	~900	100
